From PMC3320615, “β-Microseminoprotein Endows Post Coital Seminal Plasma with Potent Candidacidal Activity by a Calcium- and pH-Dependent Mechanism” (PLoS Pathogens, 2012)

B1: recombinant MSP: Recombinant human β-microseminoprotein from R&D Systems (protein)
chain: SCYFIPNEGVPGDSTRKCMDLKGNKHPINSEWQTDNCETCTCYETEISCCTLVSTPVGYDKDNCQRIFKKEDCKYIVVEKKDPKKTCSVSEWII

Experiments:
[1] = test system: HaCaT cells; assay: LDH release from HaCaT cells; assay type: cell-based, human; conditions: 100 µM; over night; colorimetric; vs 2% Triton-X100
Experimental: (§1) The cytotoxicity of MSP was evaluated by the ability of 100 µM MSP66–76 or MSP66–76E/Q to cause LDH release from HaCaT cells and lysis of erythrocytes.
(§2) Supplementary file ppat.1002625.s006.tif: Table S1 Cytoxic and hemolytic Effect of MSP66–76E/Q and MSP66–76. HaCaT cells were treated with 100 µM of MSP66–76E/Q and MSP66–76 over night. The release of LDH was subsequently determined by colorimetric assay and depicted as percent of LDH release of cells treated with 2% Triton- X100. Erythrocytes were treated for 1 ½ hour with 100 µM of MSP66–76E/Q and MSP66–76 followed by centrifugation. Lysis was determined by measuring hemoglobin in the supernatant by measuring the absorbance at 550 nm. Results are depicted as % of lysis compared to lysis obtained by 2% Triton-X100. (TIF) Click here for additional data file.

[2] = test system: Candida albicans ATCC 90028; assay: CFU assay with C. albicans; assay type: cell-based; conditions: for Estimate (difference between means of log values): control - treatment, pH 4
Source text: Candida albicans strains: ATCC 90028, CAF-1-2, SC5814, BM4f35II68, vaginal clinical isolates from Dept. of Clincal Microbiology, Skåne University Hospital, SO_303369 and SO_503471. Candida parapsilosis strains: ATCC 90018, BD1800, BD17837, and BM24/68/09. Candida glabrata strains: ATCC 90030, clinical isolates from Dept. of Clincal Microbiology, Skåne University Hospital, SO_3336, SO_3400 and SO_503413. All strains were inoculated from frozen culture and grown in Yeast extract-Peptone-Dextrose (YPD) (Sigma) and on Sabourand Dextrose Broth (SAB) (Difco) plates at 30°C with 5% (v/v) CO2. If not otherwise stated, ATCC 90028 was used for candidacidal experiments.
(§3) Candida albicans was grown over night, washed, and resuspended in 10 mM Tris, 5 mM glucose, pH 7.4 or pH 4. Approximately 4×10^3 to 10^4 CFU of C. albicans were incubated with the test substance in low or neutral pH buffer for 4 h at 37°C. After incubation, the suspension was diluted and plated. Colonies were counted after two days incubation of the plates at 30°C. Bacteria from overnight cultures were inoculated in fresh medium and grown for 3 h, washed in 10 mM Tris, 5 mM glucose pH 7.4. Approximately 8×10^4 CFU were incubated with sample in 10 mM Tris, 5 mM glucose pH 7.4 or pH 4 for 1 h at 37°C, diluted, plated and incubated over night at 37°C and the colonies counted.
Statistical analysis was performed using SAS 9.2 software (SAS Institute, Cary, NC). Colony counts were log transformed. In order to choose the statistical method, interactions between the Treatment and Experiment were investigated. Treatments were screened by doing pair wise comparisons of each treatment to a control. Statistical tests used for the comparisons included MIXED procedure and LSMEANS statement. All tests where P-value<.05 were considered to indicate statistical significance. P-values were not adjusted for the multiple comparisons.
“Estimate” is the estimate of the difference between means of log values of treatment 1 and treatment 2

[3] = test system: erythrocytes; assay: Lysis of erythrocytes; assay type: cell-based, human; conditions: 100 µM; 1 ½ hour; absorbance at 550 nm; vs 2% Triton-X100
Experimental: as §1, §2

[4] = test system: E. coli (strain 37.4); assay: Antibacterial CFU assay; assay type: cell-based; conditions: purified MSP 10 µM + 20 µM EDTA or recombinant dialyzed MSP 10 µM + 10 µM EDTA; low and neutral pH; data not shown
Experimental: as §3, with “E. coli (strain 37.4), S. aureus (strain 5120), S. pyogenes (M5 Manfredo), S. agalactiae (SB1), and E. faecalis (strain 2374) were grown in THY medium (Todd Hewitt with addition of yeast) and on THY agar plates at 37°C with 5% (v/v) CO2. Candida” for “Candida”

[5] = test system: S. pyogenes (M5 Manfredo); assay: Antibacterial CFU assay; assay type: cell-based; conditions: purified MSP 10 µM + 20 µM EDTA or recombinant dialyzed MSP 10 µM + 10 µM EDTA; neutral pH; data not shown
Experimental: as §3, with “E. coli (strain 37.4), S. aureus (strain 5120), S. pyogenes (M5 Manfredo), S. agalactiae (SB1), and E. faecalis (strain 2374) were grown in THY medium (Todd Hewitt with addition of yeast) and on THY agar plates at 37°C with 5% (v/v) CO2. Candida” for “Candida”

[6] = test system: E. faecalis (strain 2374); assay: Antibacterial CFU assay; assay type: cell-based; conditions: purified MSP 10 µM + 20 µM EDTA or recombinant dialyzed MSP 10 µM + 10 µM EDTA; low and neutral pH; data not shown
Experimental: as §3, with “E. coli (strain 37.4), S. aureus (strain 5120), S. pyogenes (M5 Manfredo), S. agalactiae (SB1), and E. faecalis (strain 2374) were grown in THY medium (Todd Hewitt with addition of yeast) and on THY agar plates at 37°C with 5% (v/v) CO2. Candida” for “Candida”

[7] = test system: S. agalactiae (SB1); assay: Antibacterial CFU assay; assay type: cell-based; conditions: purified MSP 10 µM + 20 µM EDTA or recombinant dialyzed MSP 10 µM + 10 µM EDTA; neutral pH; data not shown
Experimental: as §3, with “E. coli (strain 37.4), S. aureus (strain 5120), S. pyogenes (M5 Manfredo), S. agalactiae (SB1), and E. faecalis (strain 2374) were grown in THY medium (Todd Hewitt with addition of yeast) and on THY agar plates at 37°C with 5% (v/v) CO2. Candida” for “Candida”

[8] = test system: S. aureus (strain 5120); assay: Antibacterial CFU assay; assay type: cell-based; conditions: purified MSP 10 µM + 20 µM EDTA or recombinant dialyzed MSP 10 µM + 10 µM EDTA; neutral pH; data not shown
Experimental: as §3, with “E. coli (strain 37.4), S. aureus (strain 5120), S. pyogenes (M5 Manfredo), S. agalactiae (SB1), and E. faecalis (strain 2374) were grown in THY medium (Todd Hewitt with addition of yeast) and on THY agar plates at 37°C with 5% (v/v) CO2. Candida” for “Candida”

[9] = test system: C. albicans; assay: Antifungal gel overlay assay (AU-PAGE); assay type: cell-based, Candida albicans
Experimental: Gel overlay assay was performed essentially as described. Briefly, duplicate samples were run on native Acid Urea (AU-PAGE) gels in 5% (v/v) acetic acid at 100 V for 1 h 20 min. Candida albicans was grown over night, washed and resuspended in 10 mM NaPO4 pH 7.4 and approximately 1×10^5 CFU were added to 12 ml melted underlay agarose (10 mM NaPO4, pH 7.4, 0.03% SAB, 1% agarose type 1 (Sigma, St. Louis, MO)) and poured into a square Petri dish. One AU-gel was stained with Coomassie brilliant blue and one AU gel was washed 3×4 min in 10 mM NaPO4, pH 7.4 and then placed on top of the agarose and incubated for 4 h at 37°C. The AU gel was then removed and an overlay agarose (6% SAB, 1% agarosetype 1 (Sigma)) was poured on top of the underlay and incubated over night at 30°C. To make the clearing zones more visible, the agarose was stained with Coomassie brilliant blue followed by destaining.

| Molecule | LDH release from HaCaT cells [1] | Effect of 0.5 mM calcium on antifungal activity ([2]; acidic pH, Figure S2) | Estimate (difference between means of log values) ([2]; 140 µM + 0.5 mM calcium, experiment 1) | Estimate (difference between means of log values) ([2]; 140 µM + 0.5 mM calcium, experiment 2) | Estimate (difference between means of log values) ([2]; 140 µM + 0.5 mM calcium, experiment 3) | Estimate (difference between means of log values) ([2]; 140 µM + 0.5 mM magnesium, experiment 1) | Estimate (difference between means of log values) ([2]; 140 µM + 0.5 mM magnesium, experiment 2) | Estimate (difference between means of log values) ([2]; 140 µM + 0.5 mM magnesium, experiment 3) | Estimate (difference between means of log values) ([2]; 140 µM, experiment 1) | Estimate (difference between means of log values) ([2]; 140 µM, experiment 2) | Estimate (difference between means of log values) ([2]; 140 µM, experiment 3) | Calcium concentration inhibiting the antifungal activity ([2]; neutral pH, Figure S2) [µM] | Lysis of erythrocytes [3] | Fungicidal activity in CFU assay ([2]; native MSP 10 µM + 20 µM EDTA or recombinant dialyzed MSP 10 µM + 10 µM EDTA) | Antibacterial activity in CFU assay [4] | Antibacterial activity in CFU assay [5] | Antibacterial activity in CFU assay [6] | Antibacterial activity in CFU assay [7] | Antibacterial activity in CFU assay [8] | Clearing zone in antifungal gel overlay assay [9] |
| --- | --- | --- | --- | --- | --- | --- | --- | --- | --- | --- | --- | --- | --- | --- | --- | --- | --- | --- | --- | --- |
| RIFKKQDCKYI [MSP66–76E/Q, mutated form of MSP66–76 where E71 was substituted with a glutamine] | No significant LDH release | not inhibited | 3.1854 | 2.1182 | 2.6879 | 4.0137 | 1.7951 | 4.5634 | 5.3523 | 5.6354 | 5.8836 | 50 to 100 | No significant LDH release or lysis |  |  |  |  |  |  |  |
| B1 |  |  |  |  |  |  |  |  |  |  |  |  |  | prominent fungicidal activity | no antibacterial activity | no antibacterial activity | no antibacterial activity | no antibacterial activity | no antibacterial activity | displayed antifungal activity by producing a clearing zone |
